Laboratory results from US5593970A, “Heterocyclic anthracycline analogs” (priority 1994, dated 1997).
Read-outs that look alike come from different tables or passages of the source.

Legend:
Renal = assay: NCI assay, average per cancer type; details: Homo sapiens; for CC50: 48 h, read-out: Average LOG10 LC50; for GI50: read-out: Average LOG10 GI50
Melanoma = assay: NCI assay, average per cancer type; details: Homo sapiens; for GI50: read-out: Average LOG10 GI50; for CC50: read-out: Average LOG10 LC50
SC Lung = assay: NCI assay, average per cancer type; details: Homo sapiens; for CC50: 48 h, read-out: Average LOG10 LC50; for GI50: read-out: Average LOG10 GI50
SKOV3 = assay: Microculture tetrazolium assay; assay type: cell-based; details: Homo sapiens, SK-OV-3, SKOV3; read-out: IC50
Colon = assay: NCI assay, average per cancer type; details: Homo sapiens; for CC50: 48 h, read-out: Average LOG10 LC50; for GI50: read-out: Average LOG10 GI50
solid tumors = assay: NCI assay, mean potency in solid tumors; details: Homo sapiens; for GI50: read-out: Average LOG10 GI50, Mean Potency in solid tumors; for CC50: 48 h, read-out: Average LOG10 LC50, Mean Potency in solid tumors
Leukemia = assay: NCI assay, average per cancer type; details: for CC50: 48 h, read-out: Average LOG10 LC50; for GI50: read-out: Average LOG10 GI50
LOX = assay: Microculture tetrazolium assay; assay type: cell-based
tumor cell lines = assay: NCI sulforhodamine B assay, all cell lines; details: for CC50 / IC100 / GI50: Homo sapiens; for CC50 / IC100: 48 h; for CC50: read-out: Log10 LC50, Mean / MG-MID, all cell lines (converted); for IC100: read-out: Log10 TGI, Mean / MG-MID, all cell lines; for GI50: read-out: Log10 GI50, Mean / MG-MID, all cell lines (converted)
CNS = assay: NCI assay, average per cancer type; details: Homo sapiens; for CC50: 48 h, read-out: Average LOG10 LC50; for GI50: read-out: Average LOG10 GI50
T47D = assay: Microculture tetrazolium assay; assay type: cell-based; details: Homo sapiens, read-out: IC50
SKVLB = assay: Microculture tetrazolium assay; assay type: cell-based; details: for VLB/OV3: IC50 ratio SKVLB/SKOV3; for IC50: SKVLB, read-out: IC50
HT29 = assay: Microculture tetrazolium assay; assay type: cell-based; details: Homo sapiens, HT-29, HT29; read-out: IC50
Ovarian = assay: NCI assay, average per cancer type; details: Homo sapiens; for CC50: 48 h, read-out: Average LOG10 LC50; for GI50: read-out: Average LOG10 GI50
NSC Lung = assay: NCI assay, average per cancer type; details: Homo sapiens; for CC50: 48 h, read-out: Average LOG10 LC50; for GI50: read-out: Average LOG10 GI50

Compound | CC50 (Renal) | GI50 (Renal) | CC50 (SC Lung) | GI50 (SC Lung) | IC50 (SKOV3) | CC50 (Colon) | GI50 (Colon) | GI50 (solid tumors) | CC50 (Leukemia) | GI50 (Leukemia) | CC50 (tumor cell lines) | IC100 (tumor cell lines) | GI50 (tumor cell lines) | CC50 (CNS) | GI50 (CNS) | IC50 (T47D) | IC50 (SKVLB) | IC50 (HT29) | CC50 (Ovarian) | GI50 (Ovarian) | also measured
CCOC(=O)[C@@H]1CC2=C(C(=O)c3c(cc4ccccc4c3OC(C)=O)C2=O)[C@@H](O)O1 (relative stereo) [BCH-657, Ethyl[1-hydroxy-11-acetoxy-5,12-dioxo-3,4-5,12-tetrahydroanthraceno(2,3-C)pyran-3-yl]formate] | 12 µM | 1.32 µM | > 100 µM | 1.26 µM | 6.8 µM | 13.5 µM | 0.794 µM | 1.29 µM | > 100 µM | 0.437 µM | 26.3 µM | 4.07 µM | 1.17 µM | 13.2 µM | 1.86 µM | 13.1 µM | 6.75 µM | 2.28 µM | 17.4 µM | 1.7 µM | GI50 (Melanoma): 1.35 µM; IC50 (LOX): 9.3 µM; antiproliferative and cytotoxic activity in words (tumor cell lines): strong antiproliferative (GI50) and potent cytotoxic (LC50) activities; VLB/OV3 (SKVLB): 0.99; CC50 (NSC Lung): 11.5 µM; GI50 (NSC Lung): 1.12 µM
CCOC(=O)C1Cc2c(O)c3c(c(O)c2CO1)C(=O)c1ccccc1C3=O (stereo not drawn) [BCH-650] | > 100 µM | 52.5 µM | > 100 µM | > 100 µM | 100 µM | > 100 µM | > 100 µM | 52.5 µM | > 100 µM | 61.7 µM | 100 µM | 100 µM | 79.4 µM | > 100 µM | 45.7 µM | 100 µM | 100 µM | 91.1 µM | > 100 µM | > 100 µM | GI50 (Melanoma; 48 h): > 100 µM; CC50 (Melanoma; 48 h): > 100 µM; CC50 (solid tumors): > 100 µM; IC50 (LOX; read-out: IC50): 100 µM; CC50 (NSC Lung): > 100 µM; GI50 (NSC Lung): > 100 µM
COC(=O)[C@@H]1CC2=C(C(=O)c3cc4ccccc4cc3C2=O)[C@@H](O[C@H]2C[C@H](NC(=O)C(F)(F)F)[C@H](O)[C@H](C)O2)O1 [BCH-671] | 23.4 µM | 2.82 µM | 55 µM | 2.51 µM | 4.69 µM | 15.8 µM | 1.91 µM | 2.95 µM | > 100 µM | 1.82 µM | 29.5 µM | 7.76 µM | 2.88 µM | 42.7 µM | 4.27 µM | 2.86 µM | 6.19 µM | 4.23 µM | 33.9 µM | 3.63 µM | CC50 (Melanoma; 48 h): 21.4 µM; GI50 (Melanoma): 2.09 µM; CC50 (solid tumors): 29.5 µM; IC50 (LOX; read-out: IC50): 2.61 µM; VLB/OV3 (SKVLB): 1.32; CC50 (NSC Lung): 30.2 µM; GI50 (NSC Lung): 4.57 µM
CC(=O)C1Cc2c(O)c3c(c(O)c2CO1)C(=O)c1ccccc1C3=O (stereo not drawn) [BCH-688, Methyl-(5,12-dihydroxy-6,11-dioxo-3,4,6,11-tetrahydroanthraceno-[2,3-c]pyran-3-yl)ketone] | > 100 µM | > 100 µM | > 100 µM | > 100 µM | 100 µM | > 100 µM | > 100 µM | 52.5 µM | > 100 µM | 36.3 µM | 100 µM | 97.7 µM | 75.9 µM | > 100 µM | 53.7 µM | 100 µM | 100 µM | 100 µM | > 100 µM | 75.9 µM | CC50 (Melanoma; 48 h): > 100 µM; GI50 (Melanoma): > 100 µM; CC50 (solid tumors): > 100 µM; IC50 (LOX; read-out: IC50): 100 µM; CC50 (NSC Lung): > 100 µM; GI50 (NSC Lung): > 100 µM
